Laboratory results: patent publication US7534805B2, “Imidazole derivatives, their preparation and their use as medicaments” (Societe de Conseils de Recherches Et d'Applications …, priority 2003, dated 2009)

Row | Structure (SMILES) | melting point [°C]
1 | Brc1ccc(Oc2ccc(-c3c[nH]c(COc4ccccc4)n3)cc2)cc1.O=C(O)C(F)(F)F | 174 to 176
2 | O=C(O)C(F)(F)F.O=C(c1ccccc1)c1ccc(-c2c[nH]c(COc3ccccc3)n2)cc1 | < 50
3 | O=C(Nc1ccc(F)cc1)c1ccc(-c2c[nH]c(COc3ccccc3)n2)cc1.O=C(O)C(F)(F)F | 198 to 200
4 | Nc1ccc(Oc2ccc(-c3c[nH]c(COc4ccccc4)n3)cc2)cc1[N+](=O)[O-].O=C(O)C(F)(F)F | 178 to 180
5 | Cl.NCC(=O)Nc1ccc(Oc2ccc(-c3c[nH]c(COc4ccccc4)n3)cc2)cc1 | > 250
6 | O=C(O)C(F)(F)F.c1ccc(OCc2nc(-c3ccc(Oc4ccccc4)cc3)c[nH]2)cc1 | 112 to 114
7 | c1ccc(SCc2nc(-c3ccc(-c4ccccc4)cc3)c[nH]2)cc1 [Example 2, 4-(1,1′-biphenyl-4-yl)-2-[(phenylthio)methyl]-1H-imidazole] | 150 to 152
8 | c1ccc(OCc2nc(-c3ccc(-c4ccccc4)cc3)c[nH]2)cc1 [Example 3, 4-(1,1′-biphenyl-4-yl)-2-(phenoxymethyl)-1H-imidazole] | 185 to 187
9 | Fc1ccc(Oc2ccc(-c3c[nH]c(CSc4ccccc4)n3)cc2)cc1 [Example 4, 4-[4-(4-fluorophenoxy)phenyl]-2-[(phenylthio)methyl]-1H-imidazole] | 108 to 110
10 | Fc1ccc(OCc2nc(-c3ccc(Oc4ccc(F)cc4)cc3)c[nH]2)cc1 [Example 5, 2-[(4-fluorophenoxy)methyl]-4-[4-(4-fluorophenoxy)phenyl]-1H-imidazole] | 193 to 195
11 | c1ccc(OCc2nc(-c3ccc(Sc4ccccc4)cc3)c[nH]2)cc1 [Example 6, 2-(phenoxymethyl)-4-[4-(phenylthio)phenyl]-1H-imidazole] | 144 to 146
12 | O=S(=O)(c1ccccc1)c1ccc(-c2c[nH]c(COc3ccccc3)n2)cc1 [Example 7, 2-(phenoxymethyl)-4-[4-(phenylsulphonyl)phenyl]-1H-imidazole] | 192 to 194
13 | c1ccc(OCc2nc(-c3ccc(-n4ccnc4)cc3)c[nH]2)cc1 [Example 11, 4-[4-(1H-imidazol-1-yl)phenyl]-2-(phenoxymethyl)-1H-imidazole] | 194 to 196
14 | CCCCOc1ccc(-c2c[nH]c(COc3ccccc3)n2)cc1 [Example 14, 4-(4-butoxyphenyl)-2-(phenoxymethyl)-1H-imidazole] | 179 to 181
15 | O=[N+]([O-])c1ccc(Oc2ccc(-c3c[nH]c(COc4ccccc4)n3)cc2)cc1 [Example 15, 4-[4-(4-nitrophenoxy)phenyl]-2-(phenoxymethyl)-1H-imidazole] | 187 to 189
16 | FC(F)(F)CCCOc1ccc(-c2c[nH]c(COc3ccccc3)n2)cc1 [Example 20, 2-(phenoxymethyl)-4-[4-(4,4,4-trifluorobutoxy)phenyl]-1H-imidazole] | 194 to 196
17 | Cc1[nH]c(COc2ccccc2)nc1-c1ccc(Oc2ccc(F)cc2)cc1 [Example 21, 4-[4-(4-fluorophenoxy)phenyl]-5-methyl-2-(phenoxymethyl)-1H-imidazole] | < 40
18 | O=C(Nc1ccc(-c2c[nH]c(COc3ccccc3)n2)cc1)c1ccc(F)cc1 [Example 22, 4-fluoro-N-{4-[2-(phenoxymethyl)-1H-imidazol-4-yl]phenyl}benzamide] | 224 to 225
19 | CS(=O)(=O)c1ccc(Oc2ccc(-c3c[nH]c(COc4ccccc4)n3)cc2)cc1 [Example 27, 4-{4-[4-(methylsulphonyl)phenoxy]phenyl}-2-(phenoxymethyl)-1H-imidazole] | 143 to 145
20 | O=[N+]([O-])c1cccc(Oc2ccc(-c3c[nH]c(COc4ccccc4)n3)cc2)c1 [Example 31, 4-[4-(3-nitrophenoxy)phenyl]-2-(phenoxymethyl)-1H-imidazole] | 140 to 142
21 | c1ccc(COc2ccc(Oc3ccc(-c4c[nH]c(COc5ccccc5)n4)cc3)cc2)cc1 [Example 33, 4-{4-[4-(benzyloxy)phenoxy]phenyl}-2-(phenoxymethyl)-1H-imidazole] | 134 to 136
22 | O=[N+]([O-])c1ccccc1Oc1ccc(-c2c[nH]c(COc3ccccc3)n2)cc1 [Example 40, 4-[4-(2-nitrophenoxy)phenyl]-2-(phenoxymethyl)-1H-imidazole] | 128 to 129
23 | c1ccc(Cc2ccc(-c3c[nH]c(COc4ccccc4)n3)cc2)cc1 [Example 48, 4-(4-benzylphenyl)-2-(phenoxymethyl)-1H-imidazole] | 147 to 148

More lines, now with the values ahead:

Row | melting point [°C] | Structure (SMILES)
24 | 227 to 229 | Cl.c1ccc(OCc2nc(-c3ccc(OCCN4CCCCC4)cc3)c[nH]2)cc1
25 | 206 to 208 | CN(C)CCOc1ccc(-c2c[nH]c(COc3ccccc3)n2)cc1.Cl
26 | > 300 | Cl.Nc1cccc(Oc2ccc(-c3c[nH]c(COc4ccccc4)n3)cc2)c1
27 | 88 to 89 | Cl.Nc1ccccc1Oc1ccc(-c2c[nH]c(COc3ccccc3)n2)cc1
28 | > 300 | Cl.NCc1ccc(Oc2ccc(-c3c[nH]c(COc4ccccc4)n3)cc2)cc1
29 | 158 to 160 | Cl.Clc1ccccc1Oc1ccc(-c2c[nH]c(COc3ccccc3)n2)cc1
30 | 182 to 183 | Fc1ccccc1COc1ccc(-c2c[nH]c(COc3ccccc3)n2)cc1 [Example 8, 4-{4-[(2-fluorobenzyl)oxy]phenyl}-2-(phenoxymethyl)-1H-imidazole]
31 | 132 to 134 | COc1ccc(Oc2ccc(-c3c[nH]c(COc4ccccc4)n3)cc2)cc1 [Example 12, 4-[4-(4-methoxyphenoxy)phenyl]-2-(phenoxymethyl)-1H-imidazole]
32 | 151 to 153 | CCCCCCc1ccc(-c2c[nH]c(COc3ccccc3)n2)cc1 [Example 13, 4-(4-hexylphenyl)-2-(phenoxymethyl)-1H-imidazole]
33 | 144 to 146 | c1ccc(OCc2nc(-c3ccc(OCCN4CCOCC4)cc3)c[nH]2)cc1 [Example 16, 4-(2-{4-[2-(phenoxymethyl)-1H-imidazol-4-yl]phenoxy}ethyl) morpholine]
34 | 159 to 161 | COCCOc1ccc(-c2c[nH]c(COc3ccccc3)n2)cc1 [Example 19, 4-[4-(2-methoxyethoxy)phenyl]-2-(phenoxymethyl)-1H-imidazole]
35 | 179 to 181 | N#Cc1ccc(Oc2ccc(-c3c[nH]c(COc4ccccc4)n3)cc2)cc1 [Example 23, 4-{4-[2-(phenoxymethyl)-1H-imidazol-4-yl]phenoxy}benzonitrile]
36 | 133 to 135 | CCOC(=O)c1ccc(-c2c[nH]c(COc3ccccc3)n2)cc1 [Example 24, ethyl 4-[2-(phenoxymethyl)-1H-imidazol-4-yl]benzoate]
37 | 100 to 102 | CCOC(=O)c1ccc(Oc2ccc(-c3c[nH]c(COc4ccccc4)n3)cc2)cc1 [Example 25, ethyl 4-{4-[2-(phenoxymethyl)-1H-imidazol-4-yl]phenoxy}benzoate]
38 | 122 to 124 | CSc1ccc(Oc2ccc(-c3c[nH]c(COc4ccccc4)n3)cc2)cc1 [Example 26, 4-{4-[4-(methylthio)phenoxy]phenyl}-2-(phenoxymethyl)-1H-imidazole]
39 | 211 to 213 | Oc1ccc(Oc2ccc(-c3c[nH]c(COc4ccccc4)n3)cc2)cc1 [Example 34, 4-{4-[2-(phenoxymethyl)-1H-imidazol-4-yl]phenoxy}phenol]
40 | 177 to 179 | Fc1cccc(Oc2ccc(-c3c[nH]c(COc4ccccc4)n3)cc2)c1 [Example 35, 4-[4-(3-fluorophenoxy)phenyl]-2-(phenoxymethyl)-1H-imidazole]
41 | 161 to 163 | N#Cc1cccc(Oc2ccc(-c3c[nH]c(COc4ccccc4)n3)cc2)c1 [Example 39, 3-{4-[2-(phenoxymethyl)-1H-imidazol-4-yl]phenoxy}benzonitrile]
42 | 133 to 135 | Brc1cccc(Oc2ccc(-c3c[nH]c(COc4ccccc4)n3)cc2)c1 [Example 44, 4-[4-(3-bromophenoxy)phenyl]-2-(phenoxymethyl)-1H-imidazole]
43 | 146 to 148 | Clc1cccc(Oc2ccc(-c3c[nH]c(COc4ccccc4)n3)cc2)c1 [Example 46, 4-[4-(3-chlorophenoxy)phenyl]-2-(phenoxymethyl)-1H-imidazole]
44 | 160 to 161 | Fc1cc(F)cc(Oc2ccc(-c3c[nH]c(COc4ccccc4)n3)cc2)c1 [Example 47, 4-[4-(3,5-difluorophenoxy)phenyl]-2-(phenoxymethyl)-1H-imidazole]
45 | 160 to 162 | Cc1cccc(Oc2ccc(-c3c[nH]c(COc4ccccc4)n3)cc2)c1 [Example 49, 4-[4-(3-methylphenoxy)phenyl]-2-(phenoxymethyl)-1H-imidazole]
46 | 154 to 156 | Fc1ccccc1Oc1ccc(-c2c[nH]c(COc3ccccc3)n2)cc1 [Example 51, 4-[4-(2-fluorophenoxy)phenyl]-2-(phenoxymethyl)-1H-imidazole]
47 | 188 to 190 | Fc1ccc(Oc2ccc(-c3c[nH]c(COc4ccccc4)n3)cc2)cc1F [Example 52, 4-[4-(3,4-difluorophenoxy)phenyl]-2-(phenoxymethyl)-1H-imidazole]
48 | 128 to 130 | Fc1ccc(F)c(Oc2ccc(-c3c[nH]c(COc4ccccc4)n3)cc2)c1 [Example 54, 4-[4-(2,5-difluorophenoxy)phenyl]-2-(phenoxymethyl)-1H-imidazole]
49 | 131 to 133 | Fc1ccc(Oc2ccc(-c3c[nH]c(COc4ccccc4)n3)cc2)c(F)c1 [Example 55, 4-[4-(2,4-difluorophenoxy)phenyl]-2-(phenoxymethyl)-1H-imidazole]
50 | 127 to 129 | Fc1cccc(Oc2ccc(-c3c[nH]c(COc4ccccc4)n3)cc2)c1F [Example 56, 4-[4-(2,3-difluorophenoxy)phenyl]-2-(phenoxymethyl)-1H-imidazole]
51 | 143 to 145 | Fc1cccc(F)c1Oc1ccc(-c2c[nH]c(COc3ccccc3)n2)cc1 [Example 57, 4-[4-(2,6-difluorophenoxy)phenyl]-2-(phenoxymethyl)-1H-imidazole]
